The values below come from PubChem BioAssay (NCI).

Molecules are shown by their SMILES. “And” between values parts separate entries of the source, which are not always exact repeats. Equal values may be shown once.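 Five concentrations, 48 hours, 96-well plates. GI50 is the concentration that inhibits growth by half. At the TGI there is no net growth.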 Some results are limits rather than exact numbers.

Among the test systems are SF-295 CNS; RXF 393 renal; SR leukemia; LOX IMVI melanoma; HOP-62 NSCLC; RPMI-8226 leukemia; OVCAR-5 ovarian; HOP-92 NSCLC; NCI-H522 lung; TK-10 renal.
Common to all, as to assay: NCI tumour cell line growth inhibition, 48 h

As to `COc1cc(Nc2ncc(F)c(Nc3ccc4c(n3)NC(=O)C(C)(C)O4)n2)cc(OC)c1OC`, the GI50 with SF-295 CNS was 4.4 µM; with RXF 393 renal it was 0.418 µM; with SR leukemia it was 2.71 µM and > 10 µM; with LOX IMVI melanoma, 1.57 µM; in the assay on HOP-62 NSCLC, 1.38 µM and 4.74 µM; in the assay on RPMI-8226 leukemia, over 100 µM. Besides, the GI50 is 3.85 µM in the assay on OVCAR-5 ovarian; 0.302 µM with HOP-92 NSCLC; 1.94 µM and 1.43 µM in the assay with NCI-H522 lung; 0.677 µM in the assay with TK-10 renal. The TGI is over 10 µM with SF-295 CNS; 5.89 µM in the assay on RXF 393 renal; over 100 µM in the assay on SR leukemia; over 10 µM in the assay on LOX IMVI melanoma; over 100 µM in the assay on HOP-62 NSCLC; over 100 µM in the assay with RPMI-8226 leukemia. Besides, the TGI was over 10 µM in the assay on OVCAR-5 ovarian, 4.85 µM in the assay with HOP-92 NSCLC, over 100 µM in the assay on NCI-H522 lung and over 10 µM in the assay with TK-10 renal.
With `N#CC(C#N)N=Nc1ccc(Br)cc1`, the GI50 is 30.3 µM in the assay on SF-295 CNS; 3.63 µM in the assay with RXF 393 renal; 3.22 µM in the assay on SR leukemia; 3.75 µM in the assay on LOX IMVI melanoma; 27.1 µM with HOP-62 NSCLC; 1.52 µM in the assay on RPMI-8226 leukemia. Besides, the GI50 was 4.8 µM in the assay with OVCAR-5 ovarian, 0.249 µM in the assay on HOP-92 NSCLC, 0.543 µM with NCI-H522 lung and 4.04 µM with TK-10 renal. Further, the TGI is over 100 µM in the assay on SF-295 CNS; 14 µM in the assay with RXF 393 renal; over 49.8 µM in the assay on SR leukemia; 16.5 µM with LOX IMVI melanoma; over 100 µM in the assay with HOP-62 NSCLC; 8.03 µM in the assay with RPMI-8226 leukemia. Also, the TGI with OVCAR-5 ovarian was over 72.6 µM; in the assay on HOP-92 NSCLC, 1.84 µM; with NCI-H522 lung, 3.41 µM; in the assay with TK-10 renal, 43.2 µM.
Consider `CN(CC#N)C1CCCC[C@H]1O` (stereo not given in full), for which the TGI with SF-295 CNS, in the assay with RXF 393 renal, in the assay on SR leukemia, with LOX IMVI melanoma, in the assay with HOP-62 NSCLC and in the assay on RPMI-8226 leukemia was over 100 µM each time. The TGI in the assay on OVCAR-5 ovarian, with HOP-92 NSCLC, in the assay with NCI-H522 lung and with TK-10 renal was over 100 µM in each case.
Take `C[C@@H](CN1CC(=O)NC(=O)C1)N1CC(=O)NC(=O)C1`: the TGI in the assay with SF-295 CNS came out at 779 µM; in the assay on RXF 393 renal it was 1140 µM; in the assay on SR leukemia, 1470 µM; with LOX IMVI melanoma it was 729 µM; with HOP-62 NSCLC, 328 µM; in the assay on RPMI-8226 leukemia, 2300 µM. The TGI in the assay with OVCAR-5 ovarian was 1190 µM; in the assay on HOP-92 NSCLC, 908 µM; in the assay with NCI-H522 lung, 518 µM; in the assay with TK-10 renal it was 1110 µM.
For `Nc1ncnc2c1c(-c1cccc(OCc3ccccc3)c1)cn2C1CC(CN2CCC2)C1` (stereo not given), the GI50 in the assay on SF-295 CNS is 1.89 µM and 2.36 µM; with RXF 393 renal, 1.71 µM and 2 µM; with SR leukemia, 2.22 µM and 1.69 µM; in the assay on LOX IMVI melanoma it was 1.51 µM and 1.41 µM; with HOP-62 NSCLC it was 1.88 µM and 3.79 µM; in the assay on RPMI-8226 leukemia it was 1.9 µM and 2.18 µM. The GI50 with OVCAR-5 ovarian is 0.844 µM and 2.48 µM; in the assay with HOP-92 NSCLC, 0.0457 µM and 0.266 µM; in the assay with NCI-H522 lung it was 2.18 µM and 7.48 µM; in the assay on TK-10 renal it was 2.02 µM and 2.85 µM. The TGI is 3.93 µM and 5.63 µM in the assay with SF-295 CNS; 4.27 µM and 7.26 µM with RXF 393 renal; 6.08 µM and 4.18 µM in the assay on SR leukemia; 3.02 µM and 3 µM in the assay on LOX IMVI melanoma; 8.33 µM and > 10 µM with HOP-62 NSCLC; 5.41 µM and 5.31 µM in the assay with RPMI-8226 leukemia. Also, the TGI in the assay with OVCAR-5 ovarian was 14.9 µM and > 10 µM; in the assay with HOP-92 NSCLC, 0.837 µM and 3.82 µM; in the assay on NCI-H522 lung, 5.92 µM and > 10 µM; in the assay on TK-10 renal it was 7.74 µM and > 10 µM.
For the compound `CN1C(=O)[C@@H](NC(=O)[C@H](CCC(F)(F)F)[C@H](CCC(F)(F)F)C(N)=O)N=C(c2ccccc2)c2ccccc21`, the GI50 with SF-295 CNS is 58.4 µM; in the assay on RXF 393 renal it was 24.6 µM; in the assay with SR leukemia it was 28.4 µM; with LOX IMVI melanoma, over 100 µM; with HOP-62 NSCLC, over 100 µM; with RPMI-8226 leukemia it was 58.7 µM. Further, the GI50 is over 100 µM with OVCAR-5 ovarian, 59.1 µM with HOP-92 NSCLC, 85.2 µM in the assay with NCI-H522 lung and over 100 µM in the assay with TK-10 renal. Moreover, the TGI with SF-295 CNS, with RXF 393 renal, in the assay with SR leukemia, with LOX IMVI melanoma, with HOP-62 NSCLC and with RPMI-8226 leukemia was over 100 µM throughout. Further, the TGI in the assay on OVCAR-5 ovarian, with HOP-92 NSCLC, with NCI-H522 lung and with TK-10 renal was over 100 µM in each case.
Take `C=C1c2[nH]c3ccccc3c2C2C(CC)C1CCN2C` (stereo not given): the TGI in the assay on SF-295 CNS was over 100 µM; in the assay with RXF 393 renal it was over 100 µM; in the assay with SR leukemia, 74.8 µM; with LOX IMVI melanoma, over 100 µM; in the assay with HOP-62 NSCLC it was over 100 µM; in the assay on RPMI-8226 leukemia, 88.8 µM. In addition, the TGI with OVCAR-5 ovarian, in the assay on HOP-92 NSCLC, with NCI-H522 lung and in the assay on TK-10 renal was over 100 µM each time.
